Tested on: yeast genes (expressed mRNA)
Assay: DNA chip measurement of expressed mRNA of yeast genes after culture with a toxic chemical substance
Format: cell-based, Saccharomyces cerevisiae S288C
Conditions: for level of expressed mRNA in the presence of chemical substance / level in the absence of chemical substance: cultured two hours with the chemical substance; for The level of expressed mRNA in the presence of chemical substance/The level of expressed mRNA in the absence of chemical substance: cultured two hours with substance
Protocol: Yeast (Saccharomyces cerevisiae S288C (a SUC2mal mel gap2 CUP1)) were cultured at 25° C. on YPD medium (yeast extract 1%, polypeptone 2%, glucose 2%). One of toxic chemical substances was added to the cell at logarithmic growth phase, and the cell was further cultured for two hours. Cell was cultured without any chemical substance in the same condition, and was used as a control. Concentrations of the chemical substances were defined to inhibit the growth of the yeast but not lead to death.
After the completion of cultivation, the culture was centrifuged to collect the cells. To the cells, sodium acetate buffer (50 mM sodium acetate, 10 mM EDTA, 1% SDS) was added, and the mixture was shaken at 65° C. for five minutes, followed by returning to room temperature, and obtaining the supernatant, which procedure was repeated two times. To the supernatant, ½ amount of a solution of phenol/chloroform (1:1) was added, and the mixture was centrifuged to give a supernatant, an equal amount of chloroform was added, and the mixture was centrifuged to give a supernatant. To the supernatant, an equal amount of isopropanol containing 0.3 M sodium acetate was added, and the mixture was allowed to stand at room temperature for 30 minutes, after which the mixture was centrifuged to give sediment of the whole RNAs. Seventy % ethanol was added to the sediment, and the mixture was again centrifuged to give sediment, which was then dried and dissolved in water. mRNA was isolated from the whole RNAs as followings. In view of the fact that a poly A chain is attached to the 3′ terminus of mRNA, a polynucleotide having a poly T structure which was immobilized on the surface of latex beads was used to trap the mRNA, and then the mRNA was washed and eluted with spine column (Oligotex-dT30<Super>mRNA Purification Kit, Takara). Reverse transcription of the mRNA was conducted with a reverse transcriptase (Super Script II Reverse Transcriptase; catalogue No. 18064-014, GibcoBRL) using fluorescence-labeled nucleotides to give cDNAs that were introduced with Cy3-dUTP or Cy5-dUTP during the reverse transcription.
The labeled cDNAs were dissolved in TE buffer (10 mM Tris-HCl/1 mM EDTA, pH 8.0), and the solution was dropped on the DNA chip containing the whole genes of yeast (DNA Chip Research Inc. Japan) so that the cDNAs were hybridized on the DNA chip at 65° C. for over 12 hours. The fluoresces intensity of the DNA chip was read with a scanner, and the ratio relative to the fluorescence intensity resulting from the absence of chemical substance was estimated as the following, which is shown in Tables 1 to 9.
In the Tables, “Intensity” indicated in the rightmost column is a value of the level of expressed mRNA of each gene in control cells as divided by the average level of the expressions of the whole genes. A gene of which mRNA level is lower in control, and is higher in cases of addition of chemical substance, is especially useful in the detection of toxic substances.
Here, when a ratio of an amount of mRNA expressed in the presence of the chemical substance to an amount of mRNA expressed in the absence of the chemical substance is two or more, then it is considered significant.

## [Cl][Hg][Cl] [(3), HgCl2]
Yeast gene YNL058C
  level of expressed mRNA in the presence of chemical substance / level in the absence of chemical substance: 2.1
Yeast gene YNL063W
  level of expressed mRNA in the presence of chemical substance / level in the absence of chemical substance: 0.9
Yeast gene YNL074C
  The level of expressed mRNA in the presence of chemical substance/The level of expressed mRNA in the absence of chemical substance: 1.8
Yeast gene YNL092W
  The level of expressed mRNA in the presence of chemical substance/The level of expressed mRNA in the absence of chemical substance: 2.4
Yeast gene YNL115C
  The level of expressed mRNA in the presence of chemical substance/The level of expressed mRNA in the absence of chemical substance: 1.6
Yeast gene YNL156C
  The level of expressed mRNA in the presence of chemical substance/The level of expressed mRNA in the absence of chemical substance: 0.9
Yeast gene YNL176C
  level of expressed mRNA in the presence of chemical substance / level in the absence of chemical substance: 2.9
Yeast gene YNL194C
  level of expressed mRNA in the presence of chemical substance / level in the absence of chemical substance: 2.0
Yeast gene YNL200C
  level of expressed mRNA in the presence of chemical substance / level in the absence of chemical substance: 3.6
Yeast gene YNL234W
  The level of expressed mRNA in the presence of chemical substance/The level of expressed mRNA in the absence of chemical substance: 0.6
Yeast gene YNL253W
  level of expressed mRNA in the presence of chemical substance / level in the absence of chemical substance: 0.6
Yeast gene YNL276C
  level of expressed mRNA in the presence of chemical substance / level in the absence of chemical substance: 1.9
Yeast gene YNL281W
  The level of expressed mRNA in the presence of chemical substance/The level of expressed mRNA in the absence of chemical substance: 2.0
Yeast gene YNL305C
  The level of expressed mRNA in the presence of chemical substance/The level of expressed mRNA in the absence of chemical substance: 2.7
Yeast gene YNR051C
  level of expressed mRNA in the presence of chemical substance / level in the absence of chemical substance: 1.1
Yeast gene YNR068C
  The level of expressed mRNA in the presence of chemical substance/The level of expressed mRNA in the absence of chemical substance: 2.3
Yeast gene YOL026C
  level of expressed mRNA in the presence of chemical substance / level in the absence of chemical substance: 0.7
Yeast gene YOL032W
  The level of expressed mRNA in the presence of chemical substance/The level of expressed mRNA in the absence of chemical substance: 2.0
Yeast gene YOL036W
  The level of expressed mRNA in the presence of chemical substance/The level of expressed mRNA in the absence of chemical substance: 1.3
Yeast gene YOL047C
  The level of expressed mRNA in the presence of chemical substance/The level of expressed mRNA in the absence of chemical substance: 1.1
Yeast gene YOL071W
  The level of expressed mRNA in the presence of chemical substance/The level of expressed mRNA in the absence of chemical substance: 1.7
Yeast gene YOL082W
  The level of expressed mRNA in the presence of chemical substance/The level of expressed mRNA in the absence of chemical substance: 1.6
Yeast gene YOL083W
  The level of expressed mRNA in the presence of chemical substance/The level of expressed mRNA in the absence of chemical substance: 1.2
Yeast gene YOL117W
  The level of expressed mRNA in the presence of chemical substance/The level of expressed mRNA in the absence of chemical substance: 0.5
Yeast gene YOL131W
  The level of expressed mRNA in the presence of chemical substance/The level of expressed mRNA in the absence of chemical substance: 0.6
Yeast gene YOL150C
  The level of expressed mRNA in the presence of chemical substance/The level of expressed mRNA in the absence of chemical substance: 9.9
Yeast gene YOL162W
  The level of expressed mRNA in the presence of chemical substance/The level of expressed mRNA in the absence of chemical substance: 1.7
Yeast gene YOR019W
  The level of expressed mRNA in the presence of chemical substance/The level of expressed mRNA in the absence of chemical substance: 0.8
Yeast gene YOR022C
  level of expressed mRNA in the presence of chemical substance / level in the absence of chemical substance: 1.1
Yeast gene YOR087W
  level of expressed mRNA in the presence of chemical substance / level in the absence of chemical substance: 1.8
Yeast gene YOR138C
  level of expressed mRNA in the presence of chemical substance / level in the absence of chemical substance: 0.7
Yeast gene YOR197W
  The level of expressed mRNA in the presence of chemical substance/The level of expressed mRNA in the absence of chemical substance: 1.1
Yeast gene YOR253W
  level of expressed mRNA in the presence of chemical substance / level in the absence of chemical substance: 1.0
Yeast gene YOR267C
  level of expressed mRNA in the presence of chemical substance / level in the absence of chemical substance: 1.0
Yeast gene YOR325W
  level of expressed mRNA in the presence of chemical substance / level in the absence of chemical substance: 1.5
Yeast gene YPL005W
  level of expressed mRNA in the presence of chemical substance / level in the absence of chemical substance: 1.0
Yeast gene YPL087W
  The level of expressed mRNA in the presence of chemical substance/The level of expressed mRNA in the absence of chemical substance: 3.0
Yeast gene YPL150W
  level of expressed mRNA in the presence of chemical substance / level in the absence of chemical substance: 1.6
Yeast gene YPL152W
  level of expressed mRNA in the presence of chemical substance / level in the absence of chemical substance: 1.4
Yeast gene YPL168W
  level of expressed mRNA in the presence of chemical substance / level in the absence of chemical substance: 0.5
Yeast gene YPL180W
  level of expressed mRNA in the presence of chemical substance / level in the absence of chemical substance: 0.7
Yeast gene YPL188W
  level of expressed mRNA in the presence of chemical substance / level in the absence of chemical substance: 2.9
Yeast gene YPL196W
  The level of expressed mRNA in the presence of chemical substance/The level of expressed mRNA in the absence of chemical substance: 1.3
Yeast gene YPL206C
  The level of expressed mRNA in the presence of chemical substance/The level of expressed mRNA in the absence of chemical substance: 1.4
Yeast gene YPL221W
  level of expressed mRNA in the presence of chemical substance / level in the absence of chemical substance: 1.0
Yeast gene YPL222W
  The level of expressed mRNA in the presence of chemical substance/The level of expressed mRNA in the absence of chemical substance: 0.8
Yeast gene YPL225W
  level of expressed mRNA in the presence of chemical substance / level in the absence of chemical substance: 1.0
Yeast gene YPR023C
  The level of expressed mRNA in the presence of chemical substance/The level of expressed mRNA in the absence of chemical substance: 1.2
Yeast gene YPR049C
  level of expressed mRNA in the presence of chemical substance / level in the absence of chemical substance: 1.5
Yeast gene YPR146C
  level of expressed mRNA in the presence of chemical substance / level in the absence of chemical substance: 1.3
Yeast gene YPR148C
  level of expressed mRNA in the presence of chemical substance / level in the absence of chemical substance: 0.8
Yeast gene YPR151C
  The level of expressed mRNA in the presence of chemical substance/The level of expressed mRNA in the absence of chemical substance: 1.5
Yeast gene YPR172W
  level of expressed mRNA in the presence of chemical substance / level in the absence of chemical substance: 2.2
